Read-outs that look alike come from different tables or passages of the source. Some results are limits rather than exact numbers.

In test [1] the target is T1, Rat recombinant PDE10A (rPDE10A2) (Rattus norvegicus, UniProt Q9QYJ6).
T1 construct: made in house; host or cells: Sf9 insect cells, baculovirus
T1 sequence (Q9QYJ6 1-794): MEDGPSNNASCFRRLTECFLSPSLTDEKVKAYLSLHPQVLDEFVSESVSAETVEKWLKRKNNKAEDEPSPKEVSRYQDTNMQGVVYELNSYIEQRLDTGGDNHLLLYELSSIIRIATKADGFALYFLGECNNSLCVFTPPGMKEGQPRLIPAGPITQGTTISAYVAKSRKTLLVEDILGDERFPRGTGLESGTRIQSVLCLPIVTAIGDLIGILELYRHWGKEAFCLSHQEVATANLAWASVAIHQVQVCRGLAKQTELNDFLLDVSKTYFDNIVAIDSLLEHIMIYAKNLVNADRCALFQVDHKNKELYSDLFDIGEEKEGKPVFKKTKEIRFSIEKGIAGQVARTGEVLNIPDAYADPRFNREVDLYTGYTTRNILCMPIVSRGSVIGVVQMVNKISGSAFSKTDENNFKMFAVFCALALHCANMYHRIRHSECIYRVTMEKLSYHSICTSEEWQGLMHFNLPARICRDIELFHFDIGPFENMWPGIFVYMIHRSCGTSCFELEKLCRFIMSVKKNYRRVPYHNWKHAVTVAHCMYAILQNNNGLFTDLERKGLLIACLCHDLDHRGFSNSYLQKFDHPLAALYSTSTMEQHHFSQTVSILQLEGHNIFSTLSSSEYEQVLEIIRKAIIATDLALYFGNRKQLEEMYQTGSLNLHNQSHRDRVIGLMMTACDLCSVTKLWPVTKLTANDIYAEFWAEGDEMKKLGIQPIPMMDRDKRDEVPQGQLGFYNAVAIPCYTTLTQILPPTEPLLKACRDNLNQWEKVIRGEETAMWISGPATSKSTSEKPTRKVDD
Nature of the test: In vitro assay PDE10A (SPA, 3H-cAMP). It counts as biochemical. The following applies: pIC50 corresponds to the -log IC50 expressed in mol/L; for IC50: read-out: PDE10A2 pIC50 (converted). As for the experimental part: Rat recombinant PDE10A (rPDE10A2) was expressed in Sf9 cells using a recombinant rPDE10A baculovirus construct. Cells were harvested after 48 h of infection and the rPDE10A protein was purified by metal chelate chromatography on Ni-sepharose 6FF. Tested compounds were dissolved and diluted in 100% DMSO to a concentration 100 fold of the final concentration in the assay. Compound dilutions (0.4 μl) were added in 384 well plates to 20 μl of incubation buffer (50 mM Tris pH 7.8, 8.3 mM MgCl2, 1.7 mM EGTA). 10 μl of rPDE10A enzyme in incubation buffer was added and the reaction was started by addition of 10 μl substrate to a final concentration of 60 nM cAMP and 0.008 μCi ^3H-cAMP. The reaction was incubated for 60 min. at RT. […] After sedimentation of the beads during 30 min. the radioactivity was measured in a Perkin Elmer Topcount scintillation counter and results were expressed as cpm. For blank values the enzyme was omitted from the reaction and replaced by incubation buffer. Control values were obtained by addition of a final concentration of 1% DMSO instead of compound. The same assay principle is applied for the measurement of the affinity of the compound for other members of the PDE family with appropriate modifications in incubation buffer, substrate concentration, incubation time and stop solution.

The subject of test [2] is apomorphine-induced stereotypy. Nature of the test: Apomorphine-induced stereotypy in rats (APO). Format: in vivo. The following applies: Rattus norvegicus. The method, then:
Apomorphine-Induced Stereotypy in Rats (APO)
Apomorphine (1.0 mg/kg, i.v.)-induced stereotypy (compulsive sniffing, licking, chewing) was scored every 5 min. over the first hour after injection of apomorphine, following a 1 hour interval pre-treatment with the test compound. The score system was: (3) pronounced, (2) moderate, (1) slight, and (O) absent.

Setting [3] is: not active at 2.5 or at 10 mg/kg, not further tested, read-out: APO ED50 (not active at threshold dose).

In general, ED50 refers to the dose that gives a 50% effect, or the effect in half of the subjects. As to `Cc1nc2c(N3CCOCC3)nccn2c1-c1cnn(CC2CCCCO2)c1` (single isomer, unassigned) [compound 58], in test [1], the IC50 is 0.0676 µM. Also, the ED50 in test [2] (setting [3]) was above 2.5 mg/kg.

Turning to `COC(C)CCn1cc(-c2c(C)nc3c(N4CCOCC4)nccn23)cn1` (single isomer, unassigned) [compound 61], the IC50 in test [1] is 0.0794 µM. Also, in test [2] (read-out: APO ED50), the ED50 came to 5 mg/kg.

Regarding `Cc1nc2c(N3CCOCC3)nccn2c1-c1cnn(CC2CCCO2)c1` (single isomer, unassigned) [compound 71], the IC50 in test [1] was 0.0955 µM. Besides, in test [2] (read-out: APO ED50), the ED50 is 5 mg/kg.

As to `CCC(COC)n1cc(-c2c(C)nc3c(N4CCOCC4)nccn23)cn1` (single isomer, unassigned) [compound 74], the IC50 in test [1] was 0.0955 µM. Moreover, the ED50 in test [2] (setting [3]) was above 2.5 mg/kg.

Regarding `COC(C)CCn1cc(-c2c(C)nc3c(N4CCOCC4)nccn23)cn1` (single isomer, unassigned) [compound 84], the IC50 in test [1] was 0.117 µM. The ED50 in test [2] (setting [3]) is above 2.5 mg/kg.

Regarding `Cc1nc2c(N3CCOCC3)nccn2c1-c1cnn(CC2CCCO2)c1` (single isomer, unassigned) [compound 90], in test [1], the IC50 is 0.135 µM. Further, the ED50 in test [2] (setting [3]) is above 2.5 mg/kg.

On to `COC(C)(C)COc1ccc(-c2c(C)nc3c(N4CCOCC4)nccn23)cn1` [compound 3, 3-[6-(2-Methoxy-2-methyl-propoxy)-pyridin-3-yl]-2-methyl-8-morpholin-4-yl-imidazo[1,2-a]pyrazine], for which the IC50 in test [1] was 0.457 µM. Further, the ED50 in test [2] (read-out: APO ED50) is 5 mg/kg.

For `COCCc1ncc(-c2c(C)nc3c(N4CCOCC4)nccn23)cc1F` [compound 17, 3-[5-Fluoro-6-(2-methoxy-ethyl)-pyridin-3-yl]-2-methyl-8-morpholin-4-yl-imidazo[1,2-a]pyrazine], the IC50 in test [1] is 0.275 µM. For the same compound, the ED50 in test [2] (setting [3]) is above 2.5 mg/kg.

With `Cc1nc2c(N3CCOCC3)nccn2c1-c1ccnc(NC(C)C)c1` [compound 22, Isopropyl-[4-(2-methyl-8-morpholin-4-yl-imidazo[1,2-a]pyrazin-3-yl)-pyridin-2-yl]-amine], in test [1], the IC50 was 0.0977 µM. The ED50 in test [2] (setting [3]) was above 2.5 mg/kg.

On to `Cc1nc2c(N3CCOCC3)nccn2c1-c1ccc(N2CCNCC2)nc1` [compound 23, 2-Methyl-8-morpholin-4-yl-3-(6-piperazin-1-yl-pyridin-3-yl)-imidazo[1,2-a]pyrazine], for which the ED50 in test [2] (setting [3]) was above 2.5 mg/kg.

In the case of `CO[C@H]1CCN(c2ccc(-c3c(C)nc4c(N5CCOCC5)nccn34)cn2)C1` [compound 24, (S)-3-[6-(3-Methoxy-pyrrolidin-1-yl)-pyridin-3-yl]-2-methyl-8-morpholin-4-yl-imidazo[1,2-a]pyrazine], in test [2] (setting [3]), the ED50 is above 2.5 mg/kg.

For `CCc1ccc(-c2c(C)nc3c(N4CCOCC4)nccn23)cn1` [compound 26, 3-(6-Ethyl-pyridin-3-yl)-2-methyl-8-morpholin-4-yl-imidazo[1,2-a]pyrazine], in test [2] (setting [3]), the ED50 was above 2.5 mg/kg.

As for `Cc1nc2c(N3CCOCC3)nccn2c1-c1ccnc(CC(C)C)c1` [compound 27, 3-(2-Isobutyl-pyridin-4-yl)-2-methyl-8-morpholin-4-yl-imidazo[1,2-a]pyrazine], the IC50 in test [1] was 0.0741 µM. Further, the ED50 in test [2] (setting [3]) is above 2.5 mg/kg.

`COC(C)(C)CCc1ccc(-c2c(C)nc3c(N4CCOCC4)nccn23)cn1` [compound 29, 3-[6-(3-Methoxy-3-methyl-butyl)-pyridin-3-yl]-2-methyl-8-morpholin-4-yl-imidazo[1,2-a]pyrazine]: the IC50 in test [1] is 0.219 µM. The ED50 in test [2] (read-out: APO ED50) amounted to 1.2 mg/kg.

Turning to `COCCc1ccc(-c2c(C)nc3c(N4CCOCC4)nccn23)nc1` [compound 31, 3-[5-(2-Methoxy-ethyl)-pyridin-2-yl]-2-methyl-8-morpholin-4-yl-imidazo[1,2-a]pyrazine], the median effective dose (ED50) in test [2] (setting [3]) was above 2.5 mg/kg.

Take `COCCn1cc(-c2c(C)nc3c(N4CCOCC4)nccn23)cn1` [compound 35, 2-Methyl-3-[1-(2-methoxy-ethyl)-1H-pyrazol-4-yl]-8-morpholin-4-yl-imidazo[1,2-a]pyrazine]: the ED50 in test [2] (read-out: APO ED50) was 5 mg/kg.

Take `CC(=O)CCn1cc(-c2c(C)nc3c(N4CCOCC4)nccn23)cn1` [compound 36, 4-[4-(2-Methyl-8-morpholin-4-yl-imidazo[1,2-a]pyrazin-3-yl)-pyrazol-1-yl]-butan-2-one]: the IC50 in test [1] was 0.138 µM. Besides, the ED50 in test [2] (read-out: APO ED50) is 3.1 mg/kg.

For the compound `CCn1cc(-c2c(C)nc3c(N4CCOCC4)nccn23)cn1` [compound 38, 3-(1-Ethyl-1H-pyrazol-4-yl)-2-methyl-8-morpholin-4-yl-imidazo[1,2-a]pyrazine], in test [1], the “PDE10A2 pIC50” value was 6.63. The ED50 in test [2] (read-out: APO ED50) is at most 10 mg/kg.

`COCCn1cc(-c2c(C#N)nc3c(N4CCOCC4)nccn23)cn1` [compound 40, 3-[1-(2-Methoxy-ethyl)-1H-pyrazol-4-yl]-8-morpholin-4-yl-imidazo[1,2-a]pyrazine-2-carbonitrile]: in test [1], the “PDE10A2 pIC50” value is recorded as 7.07. The ED50 in test [2] (read-out: APO ED50) is 5 mg/kg.

With `Cc1nc2c(N3CCOCC3)nccn2c1-c1coc(CC(C)C)n1` [compound 41, 3-(2-Isobutyl-oxazol-4-yl)-2-methyl-8-morpholin-4-yl-imidazo[1,2-a]pyrazine], the ED50 in test [2] (read-out: APO ED50) is 5 mg/kg.

On to `Cc1nc2c(N3CCOCC3)nccn2c1-c1cnn(CC(F)(F)F)c1` [compound 49], for which the “PDE10A2 pIC50” value in test [1] is given as 7.33. Moreover, the ED50 in test [2] (read-out: APO ED50) came to 5 mg/kg.

Consider `CCOC(C)(C)c1ccc(-c2c(C)nc3c(N4CCOCC4)nccn23)cn1` [compound 55], for which the IC50 in test [1] is 0.0575 µM. Further, the ED50 in test [2] (setting [3]) is above 2.5 mg/kg.

For `Cc1nc2c(N3CCOCC3)nccn2c1-c1cnn(CC(F)F)c1` [compound 56], in test [1], the IC50 is 0.0575 µM. In addition, the ED50 in test [2] (po, * compound was not soluble and was tested orally as a suspension, read-out: APO ED50) was 3.1 mg/kg.

In the case of `Cc1nc2c(N3CCOCC3)nccn2c1-c1cnn(CC2CC2)c1` [compound 62], the IC50 in test [1] is 0.0794 µM. Further, the ED50 in test [2] (setting [3]) was above 2.5 mg/kg.

For `c1cn2c(-c3ccc(N4CCOCC4)nc3)c(C3CC3)nc2c(N2CCOCC2)n1` [compound 63], the IC50 in test [1] is 0.0832 µM. Further, the ED50 in test [2] (setting [3]) is above 2.5 mg/kg.

In the case of `Cc1nc2c(N3CCOCC3)nccn2c1-c1cnn(Cc2cccnc2)c1` [compound 65], the IC50 in test [1] was 0.0851 µM. Also, the ED50 in test [2] (read-out: APO ED50) came out at 5 mg/kg.

As for `COCCCn1cc(-c2c(C)nc3c(N4CCOCC4)nccn23)cn1` [compound 68], in test [1], the IC50 is 0.0871 µM. In addition, in test [2] (read-out: APO ED50), the ED50 came to 3.1 mg/kg.

As for `Cc1nc2c(N3CCOCC3)nccn2c1-c1cnn(Cc2ccccn2)c1` [compound 76], the IC50 in test [1] is 0.102 µM. Besides, the ED50 in test [2] (read-out: APO ED50) is 3.1 mg/kg.

Regarding `Cc1nc2c(N3CCOCC3)nccn2c1-c1cnn(Cc2ccncc2)c1` [compound 77], the “PDE10A2 pIC50” value in test [1] is recorded as 6.99. Besides, the ED50 in test [2] (read-out: APO ED50) is at most 10 mg/kg.

On to `CCc1nc2c(N3CCOCC3)nccn2c1-c1cnn(CCOC)c1` [compound 100], for which, in test [2] (read-out: APO ED50), the ED50 was 5 mg/kg.

On to `Cc1nc2c(N3CCOCC3)nccn2c1-c1ccc(NC(C)C)nc1` [compound 103], for which the ED50 in test [2] (setting [3]) is above 2.5 mg/kg.

Turning to `Cc1nc2c(N3CCOCC3)nccn2c1-c1ccc(CC(C)C)nc1` [compound 106], the ED50 in test [2] (setting [3]) is above 2.5 mg/kg.

Turning to `Cc1nc2c(N3CCOCC3)nccn2c1-c1ccc(C(C)C)nc1` [compound 107], in test [2] (read-out: APO ED50), the ED50 is 5 mg/kg.

On to `Cc1nc2c(N3CCOCC3)nccn2c1-c1ccc(N2CCCC2)nc1` [compound 123], for which, in test [2] (setting [3]), the ED50 is above 2.5 mg/kg.

For the compound `COCCc1ccc(-c2c(C)nc3c(N4CCCC4)nccn23)cn1` [compound 124], in test [2] (setting [3]), the ED50 is above 2.5 mg/kg.
